Results on 21 molecules are retold here after US9260418B2, “Pyranyl aryl methyl benzoquinolinone M1 receptor positive allosteric modulators” (Merck Sharp & Dohme Corp., priority 2009, dated 2016).

The target of this assay is T1, acetylcholine muscarinic M1 receptor (Homo sapiens, UniProt P11229).
T1 construct: expressed in transfected cells; host or cells: CHOnfat cells (CHO), under Geneticin selection; b382 calls them CHOK1/hM1
T1 sequence (P11229 1-460): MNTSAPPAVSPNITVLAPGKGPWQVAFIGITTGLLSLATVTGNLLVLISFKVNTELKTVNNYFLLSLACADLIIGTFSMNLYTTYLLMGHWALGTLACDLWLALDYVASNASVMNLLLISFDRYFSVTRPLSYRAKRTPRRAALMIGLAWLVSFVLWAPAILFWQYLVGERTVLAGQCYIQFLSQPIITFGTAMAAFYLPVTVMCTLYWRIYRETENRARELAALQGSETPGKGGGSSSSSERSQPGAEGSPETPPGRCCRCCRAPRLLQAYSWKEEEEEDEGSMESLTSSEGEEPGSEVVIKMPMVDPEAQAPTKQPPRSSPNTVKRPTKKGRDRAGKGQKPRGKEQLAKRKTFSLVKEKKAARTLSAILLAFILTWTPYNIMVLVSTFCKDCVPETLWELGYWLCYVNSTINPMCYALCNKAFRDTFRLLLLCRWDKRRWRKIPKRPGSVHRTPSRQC
Put plainly: muscarinic FLIPR intracellular calcium assay, potentiation of EC20 acetylcholine in CHOnfat/hM1 cells. The class given is cell-based. The settings on record: inflection point calculated from FLIPR values, 4 min preincubation, then EC20 acetylcholine (3 nM final), read-out: IP Value. As for the experimental part:
The assay studies the effect of one or several concentrations of test compounds on basal or acetylcholine-stimulated Ca^2+ levels using FLIPR.
Compounds are prepared and subjected to a preincubation period of 4 min. Thereafter, a single EC20 concentration of acetylcholine is added to each well (3 nM final). The intracellular Ca^2+ level of each sample is measured and compared to an acetylcholine control to determine any modulatory activity.
Cells: CHOnfat/hM1, hM2, hM3 or hM4 cells are plated 24 hr before the assay at a density of 18,000 cells/well (100 μL) in a 384 well plate. CHOnfat/hM1 and CHOnfat/hM3 Growth Medium: 90% DMEM (Hi Glucose); 10% HI FBS; 2 mM L-glutamine; 0.1 mM NEAA; Pen-Strep; and 1 mg/ml Geneticin, are added. For M2Gqi5CHOnfat and M4Gqi5CHOnfat cells, an additional 600 ug/ml hygromycin is added.
Equipment: 384 well plate, 120 μL addition plate; 96-well Whatman 2 ml Uniplate Incubator, 37° C., 5% CO2; Skatron EMBLA-384 Plate Washer; Multimek Pipetting System; Genesis Freedom 200 System; Mosquito System; Temo Nanolitre Pipetting System; and FLIPR^384 Fluorometric Imaging Plate Reader System are used.
Buffers. Assay Buffer: Hanks Balanced Salt Solution, with 20 mM Hepes, 2.5 mM Probenecid (Sigma P-8761) first dissolved in 1 N NaOH, 1% Bovine Serum Albumin (Sigma A-9647). Dye Loading Buffer: Assay Buffer plus 1% Fetal Bovine Serum and Fluo-4AM/Pluronic Acid Mixture. 2 mM Fluo-4AM ester stock in DMSO (Molecular Probes F-14202) Concentration of 2 μM in buffer for a final concentration of 1 μM in Assay. 20% Pluronic Acid Solution stock, with concentration of 0.04% in Buffer, 0.02% in Assay.
65 μL of 2 mM Fluo-4AM are mixed with 130 μL of 20% Pluronic Acid. The resulting solution and 650 μL FBS is added to the assay buffer for a total volume of 65 mL. Positive Controls: 4-Br-A23187: 10 mM in DMSO; final concentration 10 μM. Acetylcholine: 10 mM in water, working stock at both 20 μM and 30 μM in assay buffer, final concentration of 10 μM. This is used to check the maximum stimulation of the CHOK1/hM1 cells. 20 μM (2×) acetylcholine is added in the preincubation part of the assay, and the 30 μM (3×) stock is added in the second part. (EC20)Acetylcholine: 10 mM in water, working stock of 9 nM (3×), and final concentration in assay is 3 nM. This is used after the preincubation with test compounds. Addition of the EC20 Acetylcholine to each well with a test compound will ascertain any modulator activity. 24 wells contain 3 nM Acetylcholine alone as a control.
Screening Plate: Compounds are titrated in 96-well plates (columns 2-11), 100% DMSO, started at a concentration of 15 mM (150× stock concentration), and 3-fold serial dilutions using Genesis Freedom200 System. Four 96-well plates are combined into a 384-well plate using Mosquito Nanolitre Pipetting System by transferring 1 μl of serial diluted compounds to each well, and 1 mM acetylcholine (100× stock concentration) were added as a control. Using Temo, 49 μl assay buffer is added to each well of the 384-well plate right before assay.
In a 96-well Whatman 2 ml Uniplate, 9 nM Acetylcholine (3×) is pipetted into wells corresponding to the screening compounds, and into control wells. The 30 μM acetylcholine control (3×) is added into control wells, and the 3× agonist plate is transferred into a 384 well plate.
Cells are washed three times with 100 μL of buffer, leaving 30 μL of buffer in each well. Using Multimek, 30 μL of Dye Loading Buffer is added into each well and incubated at 37° C., 5% CO2 for up to one hr.
After 60 min, the cells are washed three times with 100 μL of buffer, leaving 30 μL of buffer in each well. The cell plate, screening plate, and agonist addition plates are placed on the platform in the FLIPR and the door closed. A signal test to check background fluorescence and basal fluorescence signal is performed. Laser intensity is adjusted if necessary. […]
Take `O=c1c2cc(Cc3ccc(Cl)nc3)c3ccccc3c2ncn1[C@H]1CCNC[C@@H]1O` (racemic) [Example 35, rac-6-[(6-Chloropyridin-3-yl)methyl]-3-[(3R,4R)-3-hydroxypiperidin-4-yl]benzo[h]quinazolin-4(3)H-one]: the EC50 is 54 nM. The result for `CC(=O)N1CC[C@H](n2cnc3c(cc(Cc4ccc(Cl)nc4)c4ccccc43)c2=O)[C@@H](O)C1` (racemic) [Example 36, rac-3-[(3R,4R)-1-acetyl-3-hydroxypiperidin-4-yl]-6-[(6-chloropyridin-3-yl)methyl]benzo[h]quinazolin-4(3H)-one] reads 120 nM; that for `O=c1c2cc(Cc3ccc(Cl)nc3)c3ccccc3c2ncn1[C@H]1CCOC[C@@H]1O` [Example 1, 6-[(6-Chloropyridin-3-yl)methyl]-3-[(3R,4S)-3-hydroxytetrahydro-2H-pyran-4-yl]benzo[h]quinazolin-4(3H)-one], 13 nM; that for `CSc1ccc(Cc2cc3c(=O)n([C@H]4CCOC[C@@H]4O)cnc3c3ccccc23)cn1` [Example 2, 3-[(3R,4S)-3-Hydroxytetrahydro-2H-pyran-4-yl]-6-{[(6-methylthio)pyridin-3-yl)methyl]benzo[h]quinazolin-4(3H)-one], 14 nM. `Cc1ccc(Cc2cc3c(=O)n([C@H]4CCOC[C@@H]4O)cnc3c3ccccc23)cn1` [Example 3, 3-[(3R,4S)-3-Hydroxytetrahydro-2H-pyran-4-yl]-6-[(6-methylpyridin-3-yl)methyl]benzo[h]quinazolin-4(3H)-one]: the EC50 was 15 nM. Take `Cn1cc(-c2ccc(Cc3cc4c(=O)n([C@H]5CCOC[C@@H]5O)cnc4c4ccccc34)cn2)cn1` [Example 4, 3-[(3R,4S)-3-Hydroxytetrahydro-2H-pyran-4-yl]-6-{[6-(1-methyl-1H-pyrazol-4-yl)pyridine-3-yl]methyl}benzo[h]quinazolin-4(3H)-one]: the EC50 is 2.5 nM. In the case of `O=c1c2cc(Cc3ccc(-n4cccn4)nc3)c3ccccc3c2ncn1[C@H]1CCOC[C@@H]1O` [Example 5, 3-[(3R,4S)-3-Hydroxytetrahydro-2H-pyran-4-yl]-6-{[6-(1H-pyrazol-1-yl)pyridine-3-yl]methyl}benzo[h]quinazolin-4(3H)-one] it was 15 nM; in that of `O=c1c2cc(Cc3cccnc3)c3ccccc3c2ncn1[C@H]1CCOC[C@@H]1O` [Example 6], 23 nM. The result for `COc1ccc(Cc2cc3c(=O)n([C@H]4CCOC[C@@H]4O)cnc3c3ccccc23)cn1` [Example 7, 3-[(3R,4S)-3-Hydroxytetrahydro-2H-pyran-4-yl]-6-[(6-methoxypyridin-3-yl)methyl]benzo[h]quinazolin-4(3H)-one] reads 16.8 nM. The result for `N#Cc1ccc(Cc2cc3c(=O)n([C@H]4CCOC[C@@H]4O)cnc3c3ccccc23)cn1` [Example 8, 5-({3-[(3R,4S)-3-Hydroxytetrahydro-2H-pyran-4-yl]-4-oxo-3,4-dihydrobenzo[h]quinazolin-6-yl}methyl)pyridine-2-carbonitrile] reads 31 nM. For `CCc1ccc(Cc2cc3c(=O)n([C@H]4CCOC[C@@H]4O)cnc3c3ccccc23)cn1` [Example 9, 6-[(6-Ethylpyridin-3-yl)methyl]-3-[(3R,4S)-3-hydroxytetrahydro-2H-pyran-4-yl]benzo[h]quinazolin-4(3H)-one], the EC50 is 16 nM. In the case of `CC(=O)c1ccc(Cc2cc3c(=O)n([C@H]4CCOC[C@@H]4O)cnc3c3ccccc23)cn1` [Example 10, 6-[(6-Acetylpyridin-3-yl)methyl]-3-[(3R,4S)-3-hydroxytetrahydro-2H-pyran-4-yl]benzo[h]quinazolin-4(3H)-one] it was 30 nM; in that of `CC(C)(O)c1ccc(Cc2cc3c(=O)n([C@H]4CCOC[C@@H]4O)cnc3c3ccccc23)cn1` [Example 11, 6-{[6-(1-Hydroxy-1-methylethyl)pyridine-3-yl]methyl}-3-[(3R,4S)-3-hydroxytetrahydro-2H-pyran-4-yl]benzo[h]quinazolin-4(3H)-one], 76 nM. With `O=c1c2cc(Cc3ccc(N4CCOCC4)cc3)c3ccccc3c2ncn1[C@H]1CCOC[C@@H]1O` [Example 12, 3-[(3R,4S)-3-Hydroxytetrahydro-2H-pyran-4-yl]-6-(4-morpholin-4-ylbenzyl)benzo[h]quinazolin-4(3H)-one], the EC50 is 21 nM. In the case of `O=c1c2cc(Cc3ccc(-c4cscn4)nc3)c3ccccc3c2ncn1[C@H]1CCOC[C@@H]1O` [Example 13, 3-[(3R,4S)-3-Hydroxytetrahydro-2H-pyran-4-yl]-6-{[6-(1,3-thiazol-4-yl)pyridine-3-yl]methyl}benzo[h]quinazolin-4(3H)-one], the EC50 is 5.8 nM. For the molecule `O=c1c2cc(Cc3ccc(Cl)[n+]([O-])c3)c3ccccc3c2ncn1[C@H]1CCOC[C@@H]1O` [Example 14, 6-[(6-Chloro-1-oxidopyridin-3-yl)methyl]-3-[(3R,4S)-3-hydroxytetrahydro-2H-pyran-4-yl]benzo[h]quinazolin-4(3H)-one], the EC50 is 59 nM. The result for `O=c1c2cc(Cc3ccnc(Cl)c3)c3ccccc3c2ncn1[C@H]1CCOC[C@@H]1O` [Example 15, 6-[(2-Chloropyridin-4-yl)methyl]-3-[(3R,4S)-3-hydroxytetrahydro-2H-pyran-4-yl]benzo[h]quinazolin-4(3H)-one] reads 12 nM; that for `CS(=O)(=O)c1ccc(Cc2cc3c(=O)n([C@H]4CCOC[C@@H]4O)cnc3c3ccccc23)cn1` [Example 16, 3-[(3R,4S)-3-Hydroxytetrahydro-2H-pyran-4-yl]-6-{[6-(methylsulfonyl)pyridine-3-yl]methyl}benzo[h]quinazolin-4(3H)-one], 53 nM; that for `C[S+]([O-])c1ccc(Cc2cc3c(=O)n([C@H]4CCOC[C@@H]4O)cnc3c3ccccc23)cn1` (stereo partly drawn) [Example 17, 3-[(3R,4S)-3-Hydroxytetrahydro-2H-pyran-4-yl]-6-{[6-(methylsulfinyl)pyridine-3-yl]methyl}benzo[h]quinazolin-4(3H)-one], 90 nM.

As to `O=C(O)c1ccc(Cc2cc3c(=O)n([C@H]4CCOC[C@@H]4O)cnc3c3ccccc23)cn1` [Example 18, 5-({3-[(3R,4S)-3-Hydroxytetrahydro-2H-pyran-4-yl]4-oxo-3,4-dihydrobenzo[h]quinazolin-6-yl}methyl)pyridine-2-carboxylic acid], the EC50 is 124 nM. In the case of `CN(C)C(=O)c1ccc(Cc2cc3c(=O)n([C@H]4CCOC[C@@H]4O)cnc3c3ccccc23)cn1` [Example 19, 5-({3-[(3R,4S)-3-Hydroxytetrahydro-2H-pyran-4-yl]-4-oxo-3,4-dihydrobenzo[h]quinazolin-6-yl}methyl)-N,N-dimethylpyridine-2-carboxamide] it was 318 nM.
